The numbers were not newly measured in patent publication US5118493A, “Composition having reduced nephrotoxocity comprising a fatty acid containing component and cyclosporine” (Brigham and Women's Hospital, priority 1991, dated 1992), which cites them from elsewhere.

For this series, the system named is rats treated with CSA.

On to `Cc1c(Cn2ccnc2)c2ccccc2n1CCC(=O)O` [UK-38,485], for which the “glomerular filtration rate (GFR)” value is given as “improved” and the “urinary TxB2 levels” value was “comparable to control levels”.
